Molecular target: T1, ΔF508-CFTR (Homo sapiens, UniProt P13569, DEL508-508)
T1 construct: expressed in transfected cells
Experiment: Membrane potential optical (FRET/VIPR) assay, identification of potentiator compounds
Assay type: cell-based
Conditions: Table 3, assay not given; for % Activity: relative efficacy
Summary of the method: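 NIH3T3 mouse fibroblasts stably expressing ΔF508-CFTR, temperature-corrected 24 h at 27° C., read on VIPR by FRET between CC2-DMPE and DiSBAC2(3). Potentiators identified in a double-addition format, first adding chloride-free (gluconate) medium with or without compound.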

T1 sequence (P13569 with tags, fused parts or gaps DEL508-508): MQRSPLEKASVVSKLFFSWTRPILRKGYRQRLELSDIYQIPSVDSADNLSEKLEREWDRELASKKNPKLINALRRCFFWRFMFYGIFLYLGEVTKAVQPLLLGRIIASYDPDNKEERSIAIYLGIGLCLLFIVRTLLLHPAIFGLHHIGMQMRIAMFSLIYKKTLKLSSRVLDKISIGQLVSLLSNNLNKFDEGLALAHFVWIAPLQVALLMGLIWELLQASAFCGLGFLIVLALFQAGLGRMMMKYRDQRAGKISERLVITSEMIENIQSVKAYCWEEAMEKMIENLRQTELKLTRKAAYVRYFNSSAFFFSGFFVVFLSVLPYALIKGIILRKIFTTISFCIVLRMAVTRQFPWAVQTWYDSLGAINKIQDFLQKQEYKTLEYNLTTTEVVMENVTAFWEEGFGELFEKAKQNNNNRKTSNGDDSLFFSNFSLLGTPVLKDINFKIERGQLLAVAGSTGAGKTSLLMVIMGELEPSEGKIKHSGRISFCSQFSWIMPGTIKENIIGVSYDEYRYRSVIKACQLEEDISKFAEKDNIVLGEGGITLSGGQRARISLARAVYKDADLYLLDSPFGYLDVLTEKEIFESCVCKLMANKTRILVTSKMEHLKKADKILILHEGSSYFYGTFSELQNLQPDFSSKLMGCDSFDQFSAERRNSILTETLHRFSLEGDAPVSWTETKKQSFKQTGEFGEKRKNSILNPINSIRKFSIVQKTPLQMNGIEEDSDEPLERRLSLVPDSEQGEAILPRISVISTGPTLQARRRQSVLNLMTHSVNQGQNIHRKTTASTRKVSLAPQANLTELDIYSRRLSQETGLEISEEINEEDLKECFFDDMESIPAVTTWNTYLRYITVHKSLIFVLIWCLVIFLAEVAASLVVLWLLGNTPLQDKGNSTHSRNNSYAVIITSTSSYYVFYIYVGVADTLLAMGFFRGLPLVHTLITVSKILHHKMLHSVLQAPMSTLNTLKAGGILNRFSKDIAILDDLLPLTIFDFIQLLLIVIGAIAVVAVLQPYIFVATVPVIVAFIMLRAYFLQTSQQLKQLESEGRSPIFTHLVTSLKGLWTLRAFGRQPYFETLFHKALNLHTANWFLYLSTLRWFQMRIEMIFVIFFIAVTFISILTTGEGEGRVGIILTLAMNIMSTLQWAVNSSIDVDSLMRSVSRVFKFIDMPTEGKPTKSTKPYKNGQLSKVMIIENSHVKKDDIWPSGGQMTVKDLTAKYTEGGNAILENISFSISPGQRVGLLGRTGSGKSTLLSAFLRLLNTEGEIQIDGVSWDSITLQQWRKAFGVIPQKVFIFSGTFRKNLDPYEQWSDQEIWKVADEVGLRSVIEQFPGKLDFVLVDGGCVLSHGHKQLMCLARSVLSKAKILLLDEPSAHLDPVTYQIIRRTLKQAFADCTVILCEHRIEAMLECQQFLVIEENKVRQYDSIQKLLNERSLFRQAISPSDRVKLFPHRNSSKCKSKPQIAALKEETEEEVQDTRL

SMILES | EC50 [µM] | % Activity
CC(C)c1ccc(NC(=O)c2c[nH]c3cccc(O)c3c2=O)cc1O [Compound 587, 5-hydroxy-N-(3-hydroxy-4-isopropyl-phenyl)-4-oxo-1H-quinoline-3-carboxamide] | < 10 | ++ (between 25% to 100%)
CC(C)(C)c1ccc(O)cc1NC(=O)c1c[nH]c2ccccc2c1=O [Compound 662, N-(5-hydroxy-2-tert-butyl-phenyl)-4-oxo-1H-quinoline-3-carboxamide] | < 10 | +++ (>100%)
COc1ccccc1Oc1ccc(C(F)(F)F)cc1NC(=O)c1c[nH]c2ccccc2c1=O [Compound 3, N-[2-(2-methoxyphenoxy)-5-(trifluoromethyl)phenyl]-4-oxo-1H-quinoline-3-carboxamide] | < 10 | ++ (between 25% to 100%)
CC(C)(CNC(=O)OCC1CCOC1)c1ccc(NC(=O)c2c[nH]c3ccccc3c2=O)cc1 (stereo not drawn) [Compound 396, [2-methyl-2-[4-[(4-oxo-1H-quinolin-3-yl)carbonylamino]phenyl]-propyl]aminoformic acid tetrahydrofuran-3-ylmethyl ester] | 10 to 25 | ++ (between 25% to 100%)
O=C(Nc1ccc(C(F)(F)F)cn1)c1c[nH]c2ccccc2c1=O [Compound 74, 4-oxo-N-[5-(trifluoromethyl)-2-pyridyl]-1H-quinoline-3-carboxamide] | 25 to 60 | + (<25%)
Cc1ccccc1-c1ccccc1NC(=O)c1c[nH]c2ccccc2c1=O [Compound 199, N-[2-(o-tolyl)phenyl]-4-oxo-1H-quinoline-3-carboxamide] | < 10 | ++ (between 25% to 100%)
CNc1cc(NC(=O)c2c[nH]c3ccccc3c2=O)ccc1C(C)(C)C [Compound 484, N-(3-methylamino-4-tert-butyl-phenyl)-4-oxo-1H-quinoline-3-carboxamide] | < 10 | ++ (between 25% to 100%)
O=C(Nc1cc(O)c(C23CC4CC(CC(C4)C2)C3)cc1F)c1cnc2ccccc2c1O [Compound 395, N-[4-(1-adamantyl)-2-fluoro-5-hydroxy-phenyl]-4-hydroxy-quinoline-3-carboxamide] | < 10 | ++ (between 25% to 100%)
N#Cc1cc2ccc(NC(=O)c3c[nH]c4ccccc4c3=O)cc2[nH]1 [Compound 270, N-(2-cyano-1H-indol-6-yl)-4-oxo-1H-quinoline-3-carboxamide] | < 10 | ++ (between 25% to 100%)
O=C(Nc1cc(C(F)(F)F)cc(C(F)(F)F)c1)c1c[nH]c2ccccc2c1=O [Compound 154, N-[3,5-bis(trifluoromethyl)phenyl]-4-oxo-1H-quinoline-3-carboxamide] | 25 to 60 | + (<25%)
Cc1ccc(C(F)(F)F)cc1NC(=O)c1c[nH]c2cccc(O)c2c1=O [Compound 676, 5-hydroxy-N-[2-methyl-5-(trifluoromethyl)phenyl]-4-oxo-1H-quinoline-3-carboxamide] | < 10 | ++ (between 25% to 100%)
CC(C)(C)OC(=O)[C@@H]1CCCN1c1ccc(NC(=O)c2c[nH]c3ccccc3c2=O)c(C(F)(F)F)c1 [Compound 629, (S)-tert-butyl 1-(4-(4-oxo-1,4-dihydroquinoline-3-carboxamido)-3-(trifluoromethyl)phenyl)pyrrolidine-2-carboxylate] | < 10 | ++ (between 25% to 100%)
COc1cccc(OC)c1-c1ccccc1NC(=O)c1c[nH]c2ccccc2c1=O [Compound 49, N-[2-(2,6-dimethoxyphenyl)phenyl]-4-oxo-1H-quinoline-3-carboxamide] | < 10 | ++ (between 25% to 100%)
COc1ccc(NC(C)=O)cc1NC(=O)c1c[nH]c2ccccc2c1=O [Compound 250, N-(5-acetylamino-2-methoxy-phenyl)-4-oxo-1H-quinoline-3-carboxamide] | 25 to 60 | + (<25%)
Cc1c(NC(=O)c2c[nH]c3ccccc3c2=O)cccc1C(F)(F)F [Compound 387, N-[2-methyl-3-(trifluoromethyl)phenyl]-4-oxo-1H-quinoline-3-carboxamide] | < 10 | ++ (between 25% to 100%)
CCOc1cccc(-c2cc(C(C)(C)C)c(O)cc2NC(=O)c2c[nH]c3ccccc3c2=O)c1 [Compound 43, N-[2-(3-ethoxyphenyl)-5-hydroxy-4-tert-butyl-phenyl]-4-oxo-1H-quinoline-3-carboxamide] | < 10 | ++ (between 25% to 100%)
CC(O)c1ccc(NC(=O)c2c[nH]c3ccccc3c2=O)cc1 (stereo not drawn) [Compound 450, N-[4-(1-hydroxyethyl)phenyl]-4-oxo-1H-quinoline-3-carboxamide] | 10 to 25 | ++ (between 25% to 100%)
CC(C)(C)c1cc(C(C)(C)C)c(NC(=O)c2c[nH]c3ccc(S(=O)(=O)N4CCCC4)cc3c2=O)cc1O [Compound 255, N-(5-hydroxy-2,4-ditert-butyl-phenyl)-4-oxo-6-pyrrolidin-1-ylsulfonyl-1H-quinoline-3-carboxamide] | < 10 | ++ (between 25% to 100%)

SMILES | EC50 [µM] | % Activity
COc1ccc(C(C)(C)C)cc1NC(=O)c1c[nH]c2ccccc2c1=O [Compound 211, N-(2-methoxy-5-tert-butyl-phenyl)-4-oxo-1H-quinoline-3-carboxamide] | < 10 | ++ (between 25% to 100%)
C[C@@H]1CCCN1c1ccc(NC(=O)c2c[nH]c3ccc(F)cc3c2=O)c(C(F)(F)F)c1 [Compound 684, (R)-6-fluoro-N-(4-(2-methylpyrrolidin-1-yl)-2-(trifluoromethyl)phenyl)-4-oxo-1,4-dihydroquinoline-3-carboxamide] | < 10 | ++ (between 25% to 100%)
Cc1ccc(S(=O)(=O)Nc2ccccc2NC(=O)c2c[nH]c3ccccc3c2=O)cc1 [Compound 398, 4-oxo-N-[2-(p-tolylsulfonylamino)phenyl]-1H-quinoline-3-carboxamide] | 10 to 25 | ++ (between 25% to 100%)
CCOC(=O)c1c(NC(=O)c2c[nH]c3ccccc3c2=O)ccc2cc[nH]c12 [Compound 412, 6-[(4-oxo-1H-quinolin-3-yl)carbonylamino]-1H-indole-7-carboxylic acid ethyl ester] | < 10 | ++ (between 25% to 100%)
CC(C)(C)c1cc(C(C)(C)C)c(NC(=O)c2c[nH]c3ccc(F)cc3c2=O)cc1O [Compound 103, 6-fluoro-N-(5-hydroxy-2,4-ditert-butyl-phenyl)-4-oxo-1H-quinoline-3-carboxamide] | < 10 | +++ (>100%)
CCCc1ccc(NC(=O)c2c[nH]c3ccccc3c2=O)cc1 [Compound 226, 4-oxo-N-(4-propylphenyl)-1H-quinoline-3-carboxamide] | – | ++ (between 25% to 100%)
Cc1ccc(C(F)(F)F)cc1NC(=O)c1c[nH]c2ccc(F)cc2c1=O [Compound 678, 6-fluoro-N-[2-methyl-5-(trifluoromethyl)phenyl]-4-oxo-1H-quinoline-3-carboxamide] | < 10 | ++ (between 25% to 100%)
C[S+]([O-])c1ccc(-c2ccccc2NC(=O)c2c[nH]c3ccccc3c2=O)cc1 (stereo not drawn) [Compound 134, N-[2-(4-methylsulfinylphenyl)phenyl]-4-oxo-1H-quinoline-3-carboxamide] | < 10 | ++ (between 25% to 100%)
Cc1cccc2[nH]cc(C(=O)Nc3ccc(N4CCC[C@@H]4C)nc3C(F)(F)F)c(=O)c12 [Compound 581, (S)-5-methyl-N-(6-(2-methylpyrrolidin-1-yl)-2-(trifluoromethyl)pyridin-3-yl)-4-oxo-1,4-dihydroquinoline-3-carboxamide] | < 10 | ++ (between 25% to 100%)
CCc1cc2cc[nH]c2cc1NC(=O)c1c[nH]c2ccccc2c1=O [Compound 351, N-(5-ethyl-1H-indol-6-yl)-4-oxo-1H-quinoline-3-carboxamide] | < 10 | ++ (between 25% to 100%)
CC(C)c1ccc(-c2cc3cc[nH]c3cc2NC(=O)c2c[nH]c3ccccc3c2=O)cc1 [Compound 342, N-[5-(4-isopropylphenyl)-1H-indol-6-yl]-4-oxo-1H-quinoline-3-carboxamide] | < 10 | ++ (between 25% to 100%)
Cc1cccc2[nH]cc(C(=O)Nc3ccc(N4CC[C@@H](C)C4)cc3C(F)(F)F)c(=O)c12 [Compound 613, (R)-5-methyl-N-(4-(3-methylpyrrolidin-1-yl)-2-(trifluoromethyl)phenyl)-4-oxo-1,4-dihydroquinoline-3-carboxamide] | < 10 | ++ (between 25% to 100%)
O=C(Nc1cccc2c1CCC2)c1c[nH]c2ccccc2c1=O [Compound 373, N-indan-4-yl-4-oxo-1H-quinoline-3-carboxamide] | < 10 | ++ (between 25% to 100%)
CCc1cc(C(C)(C)C)c(O)cc1NC(=O)c1c[nH]c2ccc(F)cc2c1=O [Compound 649, N-(2-ethyl-5-hydroxy-4-tert-butyl-phenyl)-6-fluoro-4-oxo-1H-quinoline-3-carboxamide] | < 10 | ++ (between 25% to 100%)
CC(=O)Nc1ccc(C(C)(C)C)c(NC(=O)c2c[nH]c3ccccc3c2=O)c1 [Compound 316, N-(5-acetylamino-2-tert-butyl-phenyl)-4-oxo-1H-quinoline-3-carboxamide] | 10 to 25 | ++ (between 25% to 100%)
Nc1cc(NC(=O)c2c[nH]c3ccccc3c2=O)cc(C(F)(F)F)c1 [Compound 429, N-[3-amino-5-(trifluoromethyl)phenyl]-4-oxo-1H-quinoline-3-carboxamide] | < 10 | ++ (between 25% to 100%)
CCc1c[nH]c2cc(NC(=O)c3c[nH]c4ccccc4c3=O)ccc12 [Compound 383, N-(3-ethyl-1H-indol-6-yl)-4-oxo-1H-quinoline-3-carboxamide] | < 10 | ++ (between 25% to 100%)

— patent publication US8614327B2 (Vertex Pharmaceuticals Incorporated, priority 2004, dated 2013)
